The subject of one data set is Trypanosoma brucei. Nature of the data set: Antitrypanosomal activity against Trypanosoma brucei 427 bloodstream form assessed as concentration required to inhibit 50% parasite growth incubated for 48 hrs by Alamar blue assay. The format is functional, organism-based. The note with it: Trypanosoma brucei, 427, 48 h. On the technique in general: Alamar Blue is a resazurin reagent that responds to reducing activity.

Data set [1] can be described thus: Selectivity index, ratio of IC50 for rat L6 cells assessed as cell growth inhibition incubated for 6 days by Alamar blue assay to IC50 for Trypanosoma brucei 427 bloodstream form assessed as parasite growth inhibition incubated for 48 hrs by Alamar blue assay. The note with it: L6 cells (versus Trypanosoma brucei 427 bloodstream form).

Regarding `N=C(N)Nc1nc(-c2ccc(C34CC5CC(CC(C5)C3)C4)cc2)cs1`, the concentration for half-maximal inhibition (IC50) in the data set with Trypanosoma brucei amounted to 10 µM.
As to `NCc1nc(-c2ccc(C34CC5CC(CC(C5)C3)C4)cc2)cs1`, the selectivity ratio at 48 h in data set [1] was < 1.

In general, IC50 refers to the concentration that inhibits the measured activity by half.

The values above are taken from ChEMBL document CHEMBL4699395, “Synthesis and evaluation of novel 2,4-disubstituted arylthiazoles against T. brucei” (RSC Med Chem, 2020).
